Measured values from ChEMBL document CHEMBL4251724, “Ypaoamides B and C, Linear Lipopeptides from an Okeania sp. Marine Cyanobacterium” (J Nat Prod, 2018).
The source made the active and inactive calls. No cut-off for these calls is given here.

How the values were obtained:
Type in all cases: cell-based
[1] = test system: L6; test: Activation of AMPK in rat L6 cells assessed as increase in AMPK phosphorylation at 40 uM by Western blot analysis
[2] = test system: L6; test: Activation of AMPK in rat L6 cells assessed as glucose uptake at 40 uM in presence of AMPK inhibitor compound C after 8 hrs
[3] = test system: L6; test: Cytotoxicity against rat L6 cells assessed as reduction in cell viability at 10 to 40 uM after 16 hrs by MTT assay; details: l6, 16 h
[4] = test system: L6; test: Activation of AMPK in rat L6 cells assessed as glucose uptake after 16 hrs

SMILES | Activity [1] | Activity [2] | Activity [3] | Activity [4]
CO/C(=C/C(=O)N1C(=O)C=C[C@@H]1CC(C)C)CCNC(=O)CCCCC(C)(C)C | Active | inactive | Non-Toxic | Dose-dependent effect
CO/C(=C/C(=O)N1C(=O)C=C[C@@H]1C)C/C(=C/Cl)CNC(=O)CCCCC(C)(C)C |  |  | Non-Toxic | Dose-dependent effect
